Results from US11377442B2, “Small molecule agonists and antagonists of NR2F6 activity” (ZANDER THERAPEUTICS, INC., priority 2016, dated 2022).
Where two headings read alike, the source gives them in different places. Blank lines part the entries; values can stand above or below the compound they belong to.

Key:
Type in all cases: cell-based
NR2F6 = target: T1, NR2F6 (Homo sapiens, UniProt P10588); experiment: NR2F6 agonist screening, Firefly signal cmpd/DMSO
T1 construct: expressed in transfected cells; also transient transfection
T1 sequence (P10588 1-404): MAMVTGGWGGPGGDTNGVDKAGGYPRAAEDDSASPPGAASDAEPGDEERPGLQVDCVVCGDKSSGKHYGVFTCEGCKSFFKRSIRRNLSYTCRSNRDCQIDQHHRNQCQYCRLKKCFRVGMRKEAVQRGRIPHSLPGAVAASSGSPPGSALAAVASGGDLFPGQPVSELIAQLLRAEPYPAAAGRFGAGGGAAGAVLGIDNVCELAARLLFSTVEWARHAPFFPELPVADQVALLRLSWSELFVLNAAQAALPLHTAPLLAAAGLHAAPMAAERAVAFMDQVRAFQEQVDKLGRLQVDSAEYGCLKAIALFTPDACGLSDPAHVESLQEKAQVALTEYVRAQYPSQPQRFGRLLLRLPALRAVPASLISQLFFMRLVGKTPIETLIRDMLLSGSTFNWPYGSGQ

Renilla = Renilla signal in NR2F6 agonist screening, cmpd/DMSO; conditions: Renilla, F4
HEK293 pGL4 = experiment: Firefly_pGL signal, cmpd/DMSO (pGL4 control cells); conditions: Homo sapiens
NR2F6 LBD = target: T2, NR2F6 LBD (Homo sapiens, UniProt P10588); experiment: NR2F6 LBD transient transfection; conditions: LBD
T2 construct: expressed in transfected cells
T2 sequence (P10588 165-393 limits assumed): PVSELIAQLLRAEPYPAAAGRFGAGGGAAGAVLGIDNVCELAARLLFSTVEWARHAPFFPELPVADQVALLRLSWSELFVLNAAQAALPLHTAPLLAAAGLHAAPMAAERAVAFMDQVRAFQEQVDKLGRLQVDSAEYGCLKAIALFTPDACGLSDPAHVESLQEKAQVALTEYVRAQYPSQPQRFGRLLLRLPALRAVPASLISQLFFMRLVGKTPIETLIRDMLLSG
Procedure: FIGS. 27A and 27B show NR2F6 and LBD transient transfection, respectively, for Compound D28. Higher concentrations were excluded due to lower signal (tox effect). FIGS. 27C and 27D show NR2F6 and LBD transient transfection at different concentrations for different compounds. 9 compounds were tested on LBD transfected cells (40, 10, 2 and 0.5 μM, 4 replicates). FIGS. 27E and 27F show toxicity of Compound D28. 9 compounds were tested for cytotoxicity on LBD transfected cells (40, 10, 2 and 0.5 μM, 4 replicates). […] Cytotoxicity normalized to DMSO is shown in FIG. 27F (0% cytotoxicity corresponds to DMSO signal, 100%—zero signal).
FIGS. 34A and 34B show NR2F6 LBD transient transfection for Compound E21. 9 compounds were tested on LBD transfected cells (40, 10, 2 and 0.5 μM, 4 replicates). FIGS. 34C and 34D show NR2F6 and LBD transient transfection at different concentrations for different compounds. 9 compounds were tested on LBD transfected cells (40, 10, 2 and 0.5 μM, 4 replicates). […] Cytotoxicity normalized to DMSO is shown in FIG. 34D (0% cytotoxicity corresponds to DMSO signal, 100%—zero signal). All compounds were tested at 5, 10, 25 and 50 uM in duplicates. Dog PBMC (1×10^6 cells/mL) were activated by 10 ng/mL PMA+500 ng/mL ionomycin. Data were normalized to controls with (100%)/without (0%) PMA+ionomycin activation.
FIGS. 39A and 39B show NR2F6 LBD transient transfection for Compound F1. 9 compounds were tested on LBD transfected cells (40, 10, 2 and 0.5 μM, 4 replicates). FIGS. 39C and 39D show toxicity of NR2F6 LBD transient transfection. 9 compounds were tested for cytotoxicity on LBD transfected cells (40, 10, 2 and 0.5 μM, 4 replicates). Tox effect causes lower signal compared to DMSO. Cytotoxicity normalized to DMSO is shown in FIG. 39D (0% cytotoxicity corresponds to DMSO signal, 100%—zero signal).

[1] = read-out: Renilla, F4, cmpd/DMSO (mean)
[2] = 1% FBS, read-out: Renilla, F4, 1% FBS, cmpd/DMSO (mean)
[3] = 10% FBS, read-out: Renilla, F4, 10% FBS, cmpd/DMSO (mean)
[4] = HEK293, 0.5 uM, pGL4, read-out: Firefly pGL4, cmpd/DMSO (mean)
[5] = HEK293, 2 uM, pGL4, read-out: Firefly pGL4, cmpd/DMSO (mean)
[6] = HEK293, 10 uM, pGL4, read-out: Firefly pGL4, cmpd/DMSO (mean)
[7] = HEK293, 40 uM, pGL4, read-out: Firefly pGL4, cmpd/DMSO (mean)
[8] = HEK293, pGL4, 1% FBS, 0.5 uM, read-out: Firefly, pGL4, 1% FBS, cmpd/DMSO (mean)
[9] = HEK293, pGL4, 1% FBS, 2 uM, read-out: Firefly, pGL4, 1% FBS, cmpd/DMSO (mean)
[10] = HEK293, pGL4, 1% FBS, 10 uM, read-out: Firefly, pGL4, 1% FBS, cmpd/DMSO (mean)
[11] = HEK293, pGL4, 1% FBS, 40 uM, read-out: Firefly, pGL4, 1% FBS, cmpd/DMSO (mean)
[12] = HEK293, pGL4, 10% FBS, 0.5 uM, read-out: Firefly, pGL4, 10% FBS, cmpd/DMSO (mean)
[13] = HEK293, pGL4, 10% FBS, 2 uM, read-out: Firefly, pGL4, 10% FBS, cmpd/DMSO (mean)
[14] = HEK293, pGL4, 10% FBS, 10 uM, read-out: Firefly, pGL4, 10% FBS, cmpd/DMSO (mean)
[15] = HEK293, pGL4, 10% FBS, 40 uM, read-out: Firefly, pGL4, 10% FBS, cmpd/DMSO (mean)

Firefly F4, cmpd/DMSO (mean) (NR2F6; 0.5 uM): 1.0 | Firefly F4, cmpd/DMSO (mean) (NR2F6; 2 uM): 1.1 | Firefly F4, cmpd/DMSO (mean) (NR2F6; 10 uM): 1.4 | Firefly F4, cmpd/DMSO (mean) (NR2F6; 40 uM): 2.2 | Firefly, F4, 1% FBS, cmpd/DMSO (mean) (NR2F6; 1% FBS, 0.5 uM): 1.0 | Firefly, F4, 1% FBS, cmpd/DMSO (mean) (NR2F6; 1% FBS, 2 uM): 0.8 | Firefly, F4, 1% FBS, cmpd/DMSO (mean) (NR2F6; 1% FBS, 10 uM): 1.1 | Firefly, F4, 1% FBS, cmpd/DMSO (mean) (NR2F6; 1% FBS, 40 uM): 1.8 | Firefly, F4, 10% FBS, cmpd/DMSO (mean) (NR2F6; 10% FBS, 0.5 uM): 1.5 | Firefly, F4, 10% FBS, cmpd/DMSO (mean) (NR2F6; 10% FBS, 2 uM): 1.3 | Firefly, F4, 10% FBS, cmpd/DMSO (mean) (NR2F6; 10% FBS, 10 uM): 0.7 | Firefly, F4, 10% FBS, cmpd/DMSO (mean) (NR2F6; 10% FBS, 40 uM): 1.3 | Firefly LBD, cmpd/DMSO (mean) (NR2F6 LBD; 0.5 uM): 0.9 | Firefly LBD, cmpd/DMSO (mean) (NR2F6 LBD; 2 uM): 0.9 | Firefly LBD, cmpd/DMSO (mean) (NR2F6 LBD; 10 uM): 1.3 | Firefly LBD, cmpd/DMSO (mean) (NR2F6 LBD; 40 uM): 2.2
Compound: Cc1cc(S(=O)(=O)[C@H]2CS(=O)(=O)C[C@@H]2NCC2CCCO2)ccc1F (stereo partly drawn) [Compound D115]
fold induction at 0.5 µM (Renilla; [1]): 1 | fold induction at 2 µM (Renilla; [1]): 1 | fold induction at 10 µM (Renilla; [1]): 1 | fold induction at 40 µM (Renilla; [1]): 1.1 | fold induction at 0.5 µM (Renilla; [2]): 1.1 | fold induction at 2 µM (Renilla; [2]): 1 | fold induction at 10 µM (Renilla; [2]): 1.2 | fold induction at 40 µM (Renilla; [2]): 1.5 | fold induction at 0.5 µM (Renilla; [3]): 1 | fold induction at 2 µM (Renilla; [3]): 1 | fold induction at 10 µM (Renilla; [3]): 1.1 | fold induction at 40 µM (Renilla; [3]): 1.3 | fold induction at 0.5 µM (HEK293 pGL4; [4]): 1.2 | fold induction at 2 µM (HEK293 pGL4; [5]): 1.2 | fold induction at 10 µM (HEK293 pGL4; [6]): 1.3 | fold induction at 40 µM (HEK293 pGL4; [7]): 2 | fold induction at 0.5 µM (HEK293 pGL4; [8]): 1.1 | fold induction at 2 µM (HEK293 pGL4; [9]): 1.2 | fold induction at 10 µM (HEK293 pGL4; [10]): 1.2 | fold induction at 40 µM (HEK293 pGL4; [11]): 1.6 | fold induction at 0.5 µM (HEK293 pGL4; [12]): 1.2 | fold induction at 2 µM (HEK293 pGL4; [13]): 1.2 | fold induction at 10 µM (HEK293 pGL4; [14]): 1.6 | fold induction at 40 µM (HEK293 pGL4; [15]): 2.1

Firefly F4, cmpd/DMSO (mean) (NR2F6; 0.5 uM): 1.3 | Firefly F4, cmpd/DMSO (mean) (NR2F6; 2 uM): 1.5 | Firefly F4, cmpd/DMSO (mean) (NR2F6; 10 uM): 5.1 | Firefly F4, cmpd/DMSO (mean) (NR2F6; 40 uM): 2.2 | F4, Firefly/Renilla for S/B(F4) > 3 (NR2F6; 1% FBS, 10 uM): 2.3 | Firefly, F4/pGL4 for S/B(F4) > 3 (NR2F6; 1% FBS, 10 uM): 1.7 | F4, Firefly/Renilla for S/B(F4) > 3 (NR2F6; 10% FBS, 10 uM): 2.1 | Firefly, F4/pGL4 for S/B(F4) > 3 (NR2F6; 10% FBS, 10 uM): 1.8 | Firefly, F4, 1% FBS, cmpd/DMSO (mean) (NR2F6; 1% FBS, 0.5 uM): 0.8 | Firefly, F4, 1% FBS, cmpd/DMSO (mean) (NR2F6; 1% FBS, 2 uM): 1.2 | Firefly, F4, 1% FBS, cmpd/DMSO (mean) (NR2F6; 1% FBS, 10 uM): 4.7 | Firefly, F4, 1% FBS, cmpd/DMSO (mean) (NR2F6; 1% FBS, 40 uM): 0.2 | Firefly, F4, 10% FBS, cmpd/DMSO (mean) (NR2F6; 10% FBS, 0.5 uM): 1.0 | Firefly, F4, 10% FBS, cmpd/DMSO (mean) (NR2F6; 10% FBS, 2 uM): 1.2 | Firefly, F4, 10% FBS, cmpd/DMSO (mean) (NR2F6; 10% FBS, 10 uM): 3.6 | Firefly, F4, 10% FBS, cmpd/DMSO (mean) (NR2F6; 10% FBS, 40 uM): 1.7 | Firefly LBD, cmpd/DMSO (mean) (NR2F6 LBD; 0.5 uM): 1.1 | Firefly LBD, cmpd/DMSO (mean) (NR2F6 LBD; 2 uM): 1.7 | Firefly LBD, cmpd/DMSO (mean) (NR2F6 LBD; 10 uM): 4.1 | Firefly LBD, cmpd/DMSO (mean) (NR2F6 LBD; 40 uM): 0.8
Compound: CC(C)CN[C@H]1CS(=O)(=O)C[C@@H]1S(=O)(=O)c1ccc(Cl)cc1 [Compound D120]
fold induction at 0.5 µM (Renilla; [1]): 1 | fold induction at 2 µM (Renilla; [1]): 1.2 | fold induction at 10 µM (Renilla; [1]): 1.7 | fold induction at 40 µM (Renilla; [1]): 1.6 | fold induction at 0.5 µM (Renilla; [2]): 1 | fold induction at 2 µM (Renilla; [2]): 1.3 | fold induction at 10 µM (Renilla; [2]): 2.1 | fold induction at 40 µM (Renilla; [2]): 0.6 | fold induction at 0.5 µM (Renilla; [3]): 1 | fold induction at 2 µM (Renilla; [3]): 1.1 | fold induction at 10 µM (Renilla; [3]): 1.7 | fold induction at 40 µM (Renilla; [3]): 1.5 | fold induction at 0.5 µM (HEK293 pGL4; [4]): 1.4 | fold induction at 2 µM (HEK293 pGL4; [5]): 1.5 | fold induction at 10 µM (HEK293 pGL4; [6]): 3.7 | fold induction at 40 µM (HEK293 pGL4; [7]): 0.8 | fold induction at 0.5 µM (HEK293 pGL4; [8]): 1.5 | fold induction at 2 µM (HEK293 pGL4; [9]): 1.5 | fold induction at 10 µM (HEK293 pGL4; [10]): 2.8 | fold induction at 40 µM (HEK293 pGL4; [11]): 0.9 | fold induction at 0.5 µM (HEK293 pGL4; [12]): 1.1 | fold induction at 2 µM (HEK293 pGL4; [13]): 1.7 | fold induction at 10 µM (HEK293 pGL4; [14]): 2 | fold induction at 40 µM (HEK293 pGL4; [15]): 0.7
